PMC3830930 (Clinical pharmacology and therapeutics, 2011)
Where two headings read alike, the source gives them in different places. Marks after values point to notes of the source that are not given here.

Columns and labels:
CYP3A4/5 [1] = details: for AUC1’-OH/AUC4-OH ratio: range over the three CYP3A5 genotype groups
[2] = target: recombinant CYP3A4 (rCYP3A4) (Homo sapiens, UniProt P08684)
CYP3A4/5 [3] = test: clinical; details: human, in vivo
[4] = test system: UDP-glucuronosyltransferases (UGTs) in pooled HLMs; test: Glucuronidation of hydroxymidazolams in HLMs; assay type: in vitro ADME, human
[5] = cited from earlier work
plasma protein = details: cited from earlier work

Sequence of recombinant CYP3A4 (rCYP3A4) (P08684 2-503 limits assumed): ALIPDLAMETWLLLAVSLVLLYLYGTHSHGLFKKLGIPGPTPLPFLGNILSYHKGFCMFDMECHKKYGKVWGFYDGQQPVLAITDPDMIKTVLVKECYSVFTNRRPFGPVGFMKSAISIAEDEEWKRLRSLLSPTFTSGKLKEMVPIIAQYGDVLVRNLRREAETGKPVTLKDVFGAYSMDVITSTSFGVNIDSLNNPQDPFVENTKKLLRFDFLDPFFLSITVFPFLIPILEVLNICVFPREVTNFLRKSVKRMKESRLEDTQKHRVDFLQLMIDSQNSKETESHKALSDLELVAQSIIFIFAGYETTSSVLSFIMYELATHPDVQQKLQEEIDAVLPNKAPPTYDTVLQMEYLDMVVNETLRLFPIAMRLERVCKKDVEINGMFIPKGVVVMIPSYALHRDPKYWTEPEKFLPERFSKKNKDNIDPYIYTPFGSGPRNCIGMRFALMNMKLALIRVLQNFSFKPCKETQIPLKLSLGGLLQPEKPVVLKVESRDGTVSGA

OCc1ncc2n1-c1ccc(Cl)cc1C(c1ccccc1F)=NC2 [1’-hydroxymidazolam]
AUC1’-OH/AUC4-OH ratio (CYP3A4/5 [1]; control state): 6.3–9.6 | percent of extrapolated AUC (CYP3A4/5 [1]; extrapolation to infinity, mean ± S.D.): 18.4 ± 10.6% | AUC1’-OH/AUC4-OH ratio (CYP3A4/5 [1]; with fluconazole): 2.9–4.9 | Ki of 1’-OH-MDZ formation (substrate inhibition) [2]: 1480 ± 615 ^a µM

Cc1ncc2n1-c1ccc(Cl)cc1C(c1ccccc1F)=NC2O (centres unmarked) [4-hydroxymidazolam]
percent of extrapolated AUC (CYP3A4/5 [1]; human, in vivo): 19.0 ± 8.3% | AUC (CYP3A4/5 [3]; iv, 1 mg, AUC4-OH): 0.0022 ± 0.0006 µM·h

OC(Cn1cncn1)(Cn1cncn1)c1ccc(F)cc1F [fluconazole]
effect on the glucuronidation of either hydroxymidazolam metabolite ([4]; pooled HLMs, substrate 1 µM, even at 300 µM fluconazole): no effect | IC50 for 1’-OH-MDZ lower than that for 4-OH-MDZ ([2]; human, pH 7.4): 50% | elimination t1/2 [5]: ~ 32 hrs | plasma protein binding (plasma protein): 11–12%

Cc1ncc2n1-c1ccc(Cl)cc1C(c1ccccc1F)=NC2 [midazolam, reference compound]
percent of extrapolated AUC (CYP3A4/5 [1]; human, in vivo): 13.0 ± 9.5% | AUC (CYP3A4/5 [3]; AUCMDZ): 0.227 µM·h | AUC (CYP3A4/5 [3]; iv, 1 mg, AUCMDZ): 0.16 ± 0.035 µM·h

hecogenin
effect on glucuronide formation from 1’-OH-MDZ or 4-OH-MDZ [4]: decreased glucuronide formation significantly
